Laboratory results taken from patent publication US11434199B2, “Alcohol derivatives as KV7 potassium channel openers” (H. Lundbeck A/S, priority 2018, dated 2022).

biological target: T1, hKv7.2/hKv7.3 (Homo sapiens, UniProt O43525+O43526); experiment: Automated whole cell patch-clamp functional test of the HEK-hKv7.2/hKv7.3 cell line; assay type: cell-based; settings: stable HEK-hKv7.2/hKv7.3 cell line
T1 construct: P2A remnant (self-cleaving peptide between Kv7.3 and Kv7.2) (C); expressed in transfected cells
Experimental: (§1) A synthesized cDNA fragment encoding human Kv7.3 and human Kv7.2 separated by a P2A sequence was inserted into the pcDNA5/FRT/TO vector using the BamHI and XhoI restriction sites. The construct was then transfected into HEK Flp-In 293 cells using Lipofectamine2000. The transfected cells were grown for 48 hours in DMEM containing 10% (v/v) FBS and 1% PenStrep and subsequently maintained under selection in DMEM containing 10% (v/v) FBS, 1% PenStrep and 200 ug/mL Hygromycin B at 37° C. in a humidified atmosphere of 5% CO2.

| Compound | effect on Kv7-current |
| --- | --- |
| CCOC(=O)Nc1ccc(NCc2ccc(F)cc2)cc1N [Retigabine, N-(2-amino-4-(4-fluorobenzylamino)-phenyl) carbamic acid ethyl ester] | potentiated |
| O=C1c2ccccc2C(Cc2ccncc2)(Cc2ccncc2)c2ccccc21 [XE991] | sensitive |

biological target: T1, hKv7.2/hKv7.3; experiment: Thallium influx assay for potassium channel activation; assay type: cell-based; settings: HEK-hKv7.2/hKv7.3 cells; FLIPR Potassium Assay kit; AUC readout normalized to a reference compound
Experimental: as §1
The thallium influx assay for potassium channel activation was performed analogously to a published procedure (C. D. Weaver, et al., J Biomol Screen 2004, 9, 671-677) using the FLIPR Potassium Assay kit (Molecular Devices). HEK-hKv7.2/hKv7.3 cells were plated onto 96-well, black-walled, clear-bottomed culture plates (Corning, Acton, Mass., USA) at a density of 80,000 cells/well (100 μl/well) if the cells were assayed the following day, or 40,000 cells/well (100 μl/well) if the cells were assayed two days after seeding.
On the assay day, the medium was removed after which 50 uL/well of test compound diluted to 2× final concentration in HBSS containing 20 mM HEPES, and 50 uL/well of 2× dye load buffer were added. The cells were then incubated for 60 min at room temperature in the dark. Chloride-free stimulation buffer containing Tl^+ and K^+ at 5× final concentration (5× concentration: 5 mM in both cases) and test compound at 1× final concentration, were prepared during the incubation. The cells were then assayed in a FDSS7000EX Functional Drug Screening System (Hamamatsu). Following 60 sec of baseline fluorescence signal reading at 0.1 Hz, and 10 sec at 1 Hz, 25 uL/well of stimulation buffer were added and the fluorescence continuously measured for 50 sec at 1 Hz followed, by 4 min at 0.1 Hz. Compound effect was quantified using AUC as readout and normalized to a reference compound, which was included on each plate.

| Compound | EC50 [nM] |
| --- | --- |
| C[C@H](NC(=O)CC(O)C(C)(C)C)c1cccc(OCC(F)(F)F)c1 (single isomer, unassigned) [Example 2a] | 460 |
| C[C@H](NC(=O)CC(O)C(C)(C)C)c1cccc(OCC(F)(F)F)c1 (single isomer, unassigned) [Example 2b] | 1800 |
| C[C@H](NC(=O)CC(O)C(C)(C)C)c1cccc(OC(F)F)c1 (single isomer, unassigned) [Example 3a] | 11000 |
| C[C@H](NC(=O)CC(O)C(C)(C)C)c1cccc(OC(F)F)c1 (single isomer, unassigned) [Example 3b] | 1500 |
| C[C@H](NC(=O)CC(O)C(C)(C)C)c1cccc(C(F)(F)F)c1 (single isomer, unassigned) [Example 4a] | 11000 |
| C[C@H](NC(=O)CC(O)C(C)(C)C)c1cccc(C(F)(F)F)c1 (single isomer, unassigned) [Example 4b] | 1200 |
| CC(C)C(O)(CC(=O)N[C@@H](C)c1cccc(OCC(F)(F)F)c1)C(F)(F)F (single isomer, unassigned) [Example 7a] | 220 |
| CC(C)C(O)(CC(=O)N[C@@H](C)c1cccc(OCC(F)(F)F)c1)C(F)(F)F (single isomer, unassigned) [Example 7b] | 1500 |
| CC[C@H](NC(=O)CC(O)C(C)(C)C)c1cccc(OC(F)(F)F)c1 (single isomer, unassigned) [Example 8a] | 430 |
| CC[C@H](NC(=O)CC(O)C(C)(C)C)c1cccc(OC(F)(F)F)c1 (single isomer, unassigned) [Example 8b] | 3000 |
| C[C@H](NC(=O)CC(C)(O)C(F)(F)C(F)F)c1cccc(OC(F)(F)F)c1 (single isomer, unassigned) [Example 10b] | 1300 |
| C[C@H](NC(=O)CC(O)C1CC(F)(F)C1)c1cccc(OC(F)(F)F)c1 (single isomer, unassigned) [Example 11b] | 4500 |
| CC(C)C(O)CC(=O)N[C@@H](C)c1cccc(OCC(F)(F)F)c1 (single isomer, unassigned) [Example 12a] | 1600 |
| CC(C)C(O)CC(=O)N[C@@H](C)c1cccc(OCC(F)(F)F)c1 (single isomer, unassigned) [Example 12b] | 5900 |
| C[C@H](NC(=O)CC(C)(O)CC(F)(F)F)c1cccc(OC(F)(F)F)c1 (single isomer, unassigned) [Example 13b] | 2900 |
| C[C@H](NC(=O)CC(O)C1(C(F)F)CC1)c1cccc(OC(F)(F)F)c1 (single isomer, unassigned) [Example 14a] | 2000 |
| C[C@H](NC(=O)C[C@@H](O)C1(C(F)F)CC1)c1cccc(OC(F)(F)F)c1 (single isomer, unassigned) [Example 14b] | 6600 |
| C[C@H](NC(=O)C[C@@](C)(O)C1(F)CC1)c1cccc(OC(F)(F)F)c1 (single isomer, unassigned) [Example 15a] | 2100 |
| C[C@H](NC(=O)CC(C)(O)C1(F)CC1)c1cccc(OC(F)(F)F)c1 (single isomer, unassigned) [Example 15b] | 11000 |
| C[C@H](NC(=O)CC(O)C1(C(F)(F)F)CC1)c1cccc(OC(F)(F)F)c1 (single isomer, unassigned) [Example 16a] | 3000 |
| C[C@H](NC(=O)CC(O)C1(C(F)(F)F)CC1)c1cccc(OC(F)(F)F)c1 (single isomer, unassigned) [Example 16b] | 10000 |
| C[C@H](NC(=O)CC(C)(O)C1CC1)c1cccc(OCC(F)(F)F)c1 (single isomer, unassigned) [Example 18a] | 1300 |
| C[C@H](NC(=O)CC(C)(O)C1CC1)c1cccc(OCC(F)(F)F)c1 (single isomer, unassigned) [Example 18b] | 7100 |
| C[C@H](NC(=O)CC(C)(O)C(F)(F)F)c1cccc(OCC(F)(F)F)c1 (single isomer, unassigned) [Example 19a] | 1700 |
| C[C@H](NC(=O)CC(C)(O)C(F)(F)F)c1cccc(OCC(F)(F)F)c1 (single isomer, unassigned) [Example 19b] | 3400 |
| CC(C)C(O)CC(=O)N[C@@H](C)c1cccc(OC(F)(F)F)c1 (single isomer, unassigned) [Example 20a] | 3100 |
| CC(C)C(O)CC(=O)N[C@@H](C)c1cccc(OC(F)(F)F)c1 (single isomer, unassigned) [Example 20b] | 14000 |
